The numbers were not newly measured in patent US20230174656A1, “T[…] REMDESIVIR COMBINATION THERAPY FOR COVID-19 PNEUMONIA” (priority 2020, published 2023), which cites them from elsewhere.

Where two headings read alike, the source gives them in different places.

The conditions of series [1]: cited from earlier work; for geometric mean maximum concentration of TCZ: patients with CAR T cell induced CRS, % CV in brackets.
Series [2] concerns CAR T cell-induced severe or life-threatening CRS. Particulars: cited from earlier work.
For a further series, the system named is COVID-19 pneumonia. Particulars: cited from earlier work.

Turning to “TCZ: recombinant humanized monoclonal IgG1κ antibody that binds to human interleukin-6 receptor (IL-6R); light and heavy chains SEQ ID NOs. 1 and 2”, the “geometric mean maximum concentration of TCZ” value is reported as 99.5 µg/mL in series [1] (after the first infusion) and 160.7 µg/mL in series [1] (after the second infusion). Besides, the “clearance of TCZ (PK modeling analysis)” value in series [1] (patients with CRS versus healthy volunteers and other patient populations) was “faster clearance of TCZ than healthy volunteers and other patient populations”. Moreover, the “patients achieving a response (afebrile and off vasopressors for at least 24 hours) within 14 days of the first dose of TCZ” value in series [2] (CTL019 series, 45 patients, maximum up to two doses) was 69%. Moreover, in series [2] (CTL019 series), the “median time from the first dose to response” value was 4 days. Besides, the “patients achieving a response” value in series [2] (axicabtagene ciloleucel series, 15 patients) is on record as 53%. In addition, the “median time to response” value in series [2] (axicabtagene ciloleucel series) is 4.5 days. In series [2] (patients with CRS after CAR T-cell therapy), the “adverse reactions attributable to TCZ” value is “no reports of adverse reactions attributable to TCZ”. In the series with COVID-19 pneumonia (10/19, fifth day after treatment), the “patients in whom percentage of lymphocytes in peripheral blood returned to normal” value is on record as 52.6%. In the series on COVID-19 pneumonia (15 of 20 patients), the “patients who had lowered their oxygen intake” value is on record as 75.0%. In the series with COVID-19 pneumonia (16/19), the “patients in whom abnormally elevated CRP decreased significantly” value was 84.2%. Moreover, the “adverse drug reactions and subsequent pulmonary infections” value in the series with COVID-19 pneumonia (21 treated patients) is “No adverse drug reactions and no subsequent pulmonary infections were reported”. For the same substance, the deaths result with COVID-19 pneumonia (21 treated patients) is recorded as “no deaths among the 21 treated patients”. In addition, in the series with COVID-19 pneumonia (TCZ IV 400 mg plus standard of care), the “fever after TCZ treatment” value is listed as “fever returned to normal”. For the same substance, in the series with COVID-19 pneumonia (after TCZ treatment), the “patients needing no oxygen therapy” value is “one patient needed no oxygen therapy”. The “patients with significant remission of opacities in both lungs on CT scans” value with COVID-19 pneumonia (after treatment) is 90.5%. Besides, in the series on COVID-19 pneumonia (nineteen patients, including two critical patients), the “patients discharged at the time of the report” value is 90.5%.
